Biological target: T1, Aβ 1-42 fibrils (Homo sapiens, UniProt P05067)
T1 construct: purchased Bachem Inc
Test: Congo red binding assay, Aβ 1-42 fibrils (Example 6)
Type: biochemical
Settings: 3-day incubation
Method: In the Congo red binding assay the ability of a given test compound to alter amyloid (Aβ 1-42 fibrils, IAPP fibrils or NAC fibrils) binding to Congo red was quantified. In this assay, Aβ 1-42 fibrils, IAPP fibril or NAC fibrils and test compounds were incubated for 3 days and then vacuum filtered through a 0.2 μm filter. The amount of Aβ 1-42 fibrils, IAPP fibrils or NAC fibrils retained in the filter was then quantitated following staining of the filter with Congo red. After appropriate washing of the filter, any lowering of the Congo red color on the filter in the presence of the test compound (compared to the Congo red staining of the amyloid protein in the absence of the test compound) was indicative of the test compound's ability to diminish/alter the amount of aggregated and congophilic Aβ 1-42 fibrils, IAPP fibrils or NAC fibrils.
In the Congo red binding assay the ability of a test compound to alter amyloid (in this case, Aβ) binding to Congo red is quantified. In this assay, Aβ 1-42 and test compounds were incubated for 3 days and then vacuum filtered through a 0.2 μm filter. The amount of Aβ 1-42 retained in the filter was then quantified following staining of the filter with Congo red. After appropriate washing of the filter, any lowering of the Congo red color on the filter in the presence of the test compound (compared to the Congo red staining of the amyloid protein in the absence of the test compound) was indicative of the test compound's ability to diminish/alter the amount of aggregated and congophilic Aβ.
In one study, the ability of Aβ fibrils to bind Congo red in the absence or presence of increasing amounts of the compounds or EDTA (at Aβ:test compound weight ratios of 1:0.001, 1:0.01, 1:0.1 and 1:1) was determined.

T1 sequence (P05067 672-713): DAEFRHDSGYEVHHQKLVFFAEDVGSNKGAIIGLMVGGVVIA

`O=C(O)CN(CCN(CC(=O)O)CC(=O)O)CC(=O)O` [EDTA] was tested, and the “inhibition of Aβ 1-42 fibril binding to Congo red, in words” value was “no significant inhibition”, the “% inhibition of Aβ (Congo red binding)” value (Aβ:test compound wt/wt ratio 1:0.001) was 0.0 ± 0.62% and the “% inhibition of Aβ (Congo red binding)” value (Aβ:test compound wt/wt ratio 1:0.01) was 0.0 +/− 0.49%. The “% inhibition of Aβ (Congo red binding)” value (Aβ:test compound wt/wt ratio 1:0.1) was 0.0 ± 0.76% and the “% inhibition of Aβ (Congo red binding)” value (Aβ:test compound wt/wt ratio 1:1) was 3.9 +/− 1.37%.
